Data taken from US20240165209A1, “PLACENTAL ALKALINE PHOSPHATASE FOR REDUCING THE LOSS OF RED BLOOD CELLS, WHITE BLOOD CELLS, AND PLATELETS IN CHEMOTHERAPY TREATED CANCER PATIENTS” (ZOLTAN LABORATORIES, LLC, priority 2021, published 2024).

Experiments:
[1] = test system: nucleated bone marrow cells (BM); experiment: Nucleated bone marrow (BM) cells per femur in Cyp treated T47D tumor bearing mice; type: in vivo, mouse; settings: Cyp 120 mg/kg i.p. daily x6, PLAP 7.5 mg/kg s.c. days 0, 2, 4, 6
Procedure: Again, first-generation hybrid BDF1 (C57BL/6 female×DBA/2 male) 10 weeks old adult female mice bearing T47D tumors (2.6-3.3 cm^3) were used. In the first group, mice received no treatment. In the second and third groups, mice were administered 120 mg/kg of Cyp intraperitoneally once a day for 6 consecutive days. In a third group, mice were also administered 7.5 mg/kg of PALP subcutaneously on days 0, 2, 4 and 6. On the days indicated in TABLE 4, the animals were killed, then the bone marrow was flushed from the femurs with Iscove's modified Dulbecco's medium (Gibco BRL, Gaithersburg, MD, USA). This was followed by standard erythrocyte lysis and then by counting the number of nucleated bone marrow (BM) cells per femur using a hemocytometer.

[2] = test system: blood cells (RBCs, WBCs, platelets) of T47D tumor bearing mice; experiment: Experiment 1: blood cell counts in Cyp-treated T47D tumor bearing mice, last sample day 9; type: in vivo, mouse; settings: Cyp 120 mg/kg i.p. daily x6, PLAP 7.5 mg/kg s.c. days 0, 3, 6
Procedure: In the two experiments performed, first-generation hybrid BDF1 (C57BL/6 female×DBA/2 male) 10 weeks old adult female mice bearing T47D tumors (2.6-3.3 cm 3 volume) were used.
In the first group, mice received no treatment. In the second and third groups, mice were administered 120 mg/kg of cyclophosphamide (Cyp) intraperitoneally once a day for 6 consecutive days administered between 10-10.30 AM. In a third group, mice were also administered 7.5 mg/kg of PLAP subcutaneously on days 0, 3 and 6 between 9-9.30 AM. In each group, mice were kept on standard diet (˜15% fat, 65% carbohydrate, and 20% proteins) purchased from Charles River VRFI. Both PLAP (for the 3rd group) and Cyp were dissolved in physiological (0.9%) saline and injected in 50 μl volume. […] The data shown is the average of 6 independent determinations ±S.D.

## O.O=P1(N(CCCl)CCCl)NCCCO1 (stereo not shown) [Cyp, 2-[Bis (2-chloroethyl)amino] tetrahydro-2H-1,3,2-oxazaphosphorine 2-oxide monohydrate]
[1]; day 0
  Nucleated BM cells/femur: 14.11 ± 1.50 ×10^6
[1]; day 3
  Nucleated BM cells/femur: 9.32 ± 2.32 ×10^6
[1]; day 6
  Nucleated BM cells/femur: 3.10 ± 2.26 ×10^6
[1]; day 9
  Nucleated BM cells/femur: 4.90 ± 2.17 ×10^6
[2]; day 0
  Platelets: 1,114 ± 111 ×10^−3/μl
  RBCs: 9.51 ± 1.09 ×10^−6/μl
  WBCs: 7.92 ± 0.72 ×10^−3/μl
[2]; day 3
  Platelets: 704 ± 98 ×10^−3/μl
  RBCs: 7.28 ± 1.29 ×10^−6/μl
  WBCs: 4.22 ± 0.85 ×10^−3/μl
[2]; day 6
  Platelets: 404 ± 139 ×10^−3/μl
  RBCs: 4.94 ± 0.63 ×10^−6/μl
  WBCs: 2.73 ± 0.53 ×10^−3/μl
[2]; day 9
  Platelets: 687 ± 114 ×10^−3/μl
  RBCs: 6.26 ± 0.71 ×10^−6/μl
  WBCs: 5.72 ± 0.49 ×10^−3/μl
